Patent publication US20150133516A1, “Methods and Compositions for Treating ADHD” (priority 2013, published 2015)

Key:
[1] = test system: spontaneously hypertensive rats (SHR); test: delayed gratification response paradigm in SHR animal model of ADHD; format: in vivo, rat; details: 5, 10, 25 or 50 mg/kg over twenty-one days
Text: In this study, spontaneously hypertensive rats (SHR) are used as an animal model for ADHD. The SHR animal model is described in Russell et al., 2000, Behavioral Brain Research, 117: 69-74; Russell, 2001, Metab. Brain Dis., 16: 143-149; and Sagvolden et al., 1992, Behav. Neural Biol., 58: 103-112. The study consists of two groups of rats: normal and SHR. Each group is further divided into two subgroups: placebo and AR08. The AR08 subgroup is further divided into four subgroups and each subgroup is administered 5, 10, 25, or 50 mg/kg of AR08. The AR08 is administered to the rats over a period of twenty-one days. The rats are from the normal and SHR groups are trained in the delayed gratification response paradigm as described in Charrier et al., 1996, Pharmacology and Biochemistry and Behavior, 54: 149-157. In this paradigm, rats learn to choose between five food pellets delivered after 30 seconds and one food pellet delivered after 5 seconds. Normal rats learn to choose the five food pellets delivered after 30 seconds at a higher frequency.

[2] = test system: α2 adrenergic receptors; test: alpha 2/alpha1 functional selectivity (in vitro functional potencies); format: biochemical
Method: (§1) The pharmacological activity and selectivity of these compounds can be determined using published test procedures. […] (See, e.g., The Alpha-2 Adrenergic Receptors, L. E. Limbird, ed., Humana Press, Clifton, N.J.) The following in vivo assays are typically conducted in rodents or other species. Central nervous system activity is determined by measuring locomotor activity as an index of sedation. (See, e.g., Spyraki, C. & H. Fibiger, “Clonidine-induced Sedation in Rats: Evidence for Mediation by Postsynaptic Alpha-2 Adrenoreceptors”, Journal of Neural Transmission, Vol. 54 (1982), pp. 153-163). Nasal decongestant activity is measured using rhinomanometry as an estimate of nasal airway resistance. […] Antiglaucoma activity is determined by measuring intraocular pressure. […] Antidiarrheal activity is determined by measuring the ability of the compounds to inhibit prostaglandin-induced diarrhea. […] Efficacy in treating irritable bowel syndrome is determined by measuring the ability of compounds to reduce the stress-induced increase in fecal output. […] Antiasthma activity is determined by measuring the effect of the compound on bronchoconstriction associated with pulmonary challenges such as inhaled antigens. […] Activity in cough is determined by measuring the number and latency of the cough response to respiratory challenges such as inhaled citric acid. […]

[3] = test system: α2 receptors; test: receptor binding affinities / selectivity against other molecular targets
Method: as §1

[4] = clinical; details: human, in vivo

Compound	amount of time required by SHR rats to choose five food pellets delivered after 30 seconds at a higher frequency [1]	alpha 2/alpha1 functional selectivity [2]	binding to targets other than α2 receptors [3]	selectivity for the α2 adrenergic receptors ([3]; versus a wide range of other molecular targets)	half-life [4]
Cc1c(N=C2NCCN2)cc(C#N)c2[nH]cnc12 [AR08, N-(4,5-Dihydro-1H-imidazol-2-yl)-7-cyano-4-methyl-1H-benzimidazol-5-amine acetate]	reduced				
Cc1c(N=C2NCCN2)cc(C#N)c2[nH]cnc12 [Compound I, N-(4,5-Dihydro-1H-imidazol-2-yl)-7-cyano-4-methyl-1H-benzimidazol-5-amine]		about 70 fold	no relevant binding	highly selective	26 to 40 h
